Measured values as given in patent US12522596B2, “Compounds as GLP-1R agonists” (Terns Pharmaceuticals, Inc., priority 2021, dated 2026).
Several values for one entry are separate records, joined by “and”; a condition that tells them apart may be missing. Equal values may be shown once. Read-outs that look alike come from different tables or passages of the source. Marks after values point to notes of the source that are not given here.

Assay: Pharmacokinetics in hGLP-1R mice after oral dosing
Format: in vivo, male C57BL/6J hGLP-1R mouse
Experimental: IPGTT (120 min)—PK bleeding: 40 μL blood samples (all treatment groups) were collected from mice under the jaw at IPGTT-120 min after blood glucose measurement into pre-chilled EDTA-2K tubes. Blood samples were processed for plasma by centrifugation at 4° C., 3200×g for 10 min. 15 μL plasma was stored at −80° C. for PK analysis. From 4 mice in Group 7 of the PD cohort, whole brain was collected after blood is harvested at 120 min post dose, rinsed with saline and patted dry and placed into a pre-weighed tube and stored at −80° C. collected for PK analysis.
PK bleeding group design is described in Table 9.
PK bleeding: 30 μL blood was collected at 0.25, 0.5, 1, 2, 4, and 8 h. Blood samples were processed for plasma by centrifugation at 4° C., 3200×g for 10 min. 12 μL plasma was collected at −80° C. for further analysis. From 3 mice in Group 7 of the PK cohort, whole brain was collected after blood is harvested at 8 hr post dose, rinsed with saline and patted dry and placed into a pre-weighed tube and stored at −80° C. collected for PK analysis.
For plasma: An aliquot of 3 μL sample was protein precipitated with 60 μL internal standard (100 ng/mL Labetalol & 100 ng/ml Dexamethasone & 100 ng/ml Tolbutamide & 100 ng/mL Verapamil & 100 ng/ml Glyburide & 100 ng/ml Celecoxib in ACN) and then the mixture was vortex-mixed for 10 min at 800 rpm and centrifuged for 15 min at 3220×g, 4° C.
The linear/log trapezoidal rule was applied in obtaining the PK parameters. Individual plasma concentration values that were below the lower limit of quantitation (LOQ) were excluded from the PK parameter calculation. The nominal dose levels and nominal sampling times were used in the calculation of all pharmacokinetic parameters.

[1] = hGLP-1R mouse plasma, PO 0.3 mg/kg, individual mice, 0.3 mg/kg
[2] = hGLP-1R mouse plasma, PO 0.3 mg/kg, mean
[3] = hGLP-1R mouse plasma, PO 1 mg/kg, individual mice, 1 mg/kg
[4] = hGLP-1R mouse plasma, PO 1 mg/kg, mean
[5] = hGLP-1R mouse plasma, PO 3 mg/kg, individual mice, 3 mg/kg
[6] = hGLP-1R mouse plasma, PO 3 mg/kg, mean

N#Cc1ccc(COc2cccc(C3CCN(Cc4nc5ccc(C(=O)O)cc5n4Cc4cncs4)CC3)n2)c(F)c1 [Compound 2]
higher AUClast than Reference Compound A (hGLP-1R mice, PO 0.3 mg/kg): four-fold | higher Cmax than Reference Compound A (hGLP-1R mice, PO 0.3 mg/kg): three-fold | higher AUClast than Reference Compound A (hGLP-1R mice, PO 1.0 mg/kg): approximately 4.6 fold | higher Cmax than Reference Compound A (hGLP-1R mice, PO 1.0 mg/kg): approximately 5.7 fold | increase in exposure values over a ten-fold increase in dose (hGLP-1R mice, PO 0.3 to 3 mg/kg): 22 fold | increase of exposure with dose (dose proportionality) (hGLP-1R mice, PO, Reference Compound A 0.3-1 mg/kg, Compound 2 0.3-3 mg/kg): greater than proportional manner | Concentration (hGLP-1R mouse plasma collected at 120 min (IPGTT cohort), PO 0.3 mg/kg, individual animals, 0.3 mg/kg): 26.1 ng/mL and 11.5 ng/mL and 15.0 ng/mL and 31.4 ng/mL and 17.3 ng/mL and 17.2 ng/mL and 13.1 ng/mL | Concentration (hGLP-1R mouse plasma collected at 120 min (IPGTT cohort), PO 1 mg/kg, individual animals, 1 mg/kg): 61.2 ng/mL and 53.6 ng/mL and 148 ng/mL and 60.4 ng/mL and 60.3 ng/mL and 48.9 ng/mL and 56.3 ng/mL | Concentration (hGLP-1R mouse plasma collected at 120 min (IPGTT cohort), PO 3 mg/kg, individual animals, 3 mg/kg): 159 ng/mL and 227 ng/mL and 555 ng/mL and 301 ng/mL and 239 ng/mL and 229 ng/mL and 231 ng/mL | Concentration (hGLP-1R mouse plasma, PO 0.3 mg/kg, 0.25 h, individual animals, 0.3 mg/kg): 66.8 ng/mL and 116 ng/mL and 52.2 ng/mL | Concentration (hGLP-1R mouse plasma, PO 0.3 mg/kg, 0.5 h, individual animals, 0.3 mg/kg): 60.3 ng/mL and 118 ng/mL | Concentration (hGLP-1R mouse plasma, PO 0.3 mg/kg, 1 h, individual animals, 0.3 mg/kg): 49.2 ng/mL and 55.8 ng/mL | Concentration (hGLP-1R mouse plasma, PO 0.3 mg/kg, 2 h, individual animals, 0.3 mg/kg): 18.2 ng/mL and 6.53 ng/mL and 7.14 ng/mL | Concentration (hGLP-1R mouse plasma, PO 0.3 mg/kg, 4 h, individual animals, 0.3 mg/kg): 7.15 ng/mL and 1.84 ng/mL and 2.23 ng/mL | Concentration (hGLP-1R mouse plasma, PO 0.3 mg/kg, 8 h, individual animals, 0.3 mg/kg): 1.64 ng/mL and BQL | AUC0-inf [1]: 0.0904 µg·h/mL and 0.12 µg·h/mL | AUC0-last [1]: 0.087 µg·h/mL and 0.117 µg·h/mL | AUCExtra [1]: 5.66% and 3.76% and 1.86% | AUMCExtra [1]: 25.0% and 22.4% and 10.0% | Cmax [1]: 0.0668 µg/mL and 0.118 µg/mL | MRT0-inf [1]: 2.49 h and 1.69 h and 0.928 h | MRT0-last [1]: 1.98 h and 1.36 h and 0.851 h | T1/2 [1]: 2.08 h and 1.44* h and 0.691* h | Tlast [1]: 8.00 h (2×) and 4.00 h | Tmax [1]: 0.250 h | AUCExtra [2]: 3.76% | AUMCExtra [2]: 19.1% | Concentration (hGLP-1R mouse plasma, PO 1 mg/kg, 0.25 h, individual animals, 1 mg/kg): 208 ng/mL and 224 ng/mL | Concentration (hGLP-1R mouse plasma, PO 1 mg/kg, 0.5 h, individual animals, 1 mg/kg): 256 ng/mL and 265 ng/mL | Concentration (hGLP-1R mouse plasma, PO 1 mg/kg, 1 h, individual animals, 1 mg/kg): 183 ng/mL and 156 ng/mL | Concentration (hGLP-1R mouse plasma, PO 1 mg/kg, 2 h, individual animals, 1 mg/kg): 77.6 ng/mL and 36.6 ng/mL and 31.7 ng/mL | Concentration (hGLP-1R mouse plasma, PO 1 mg/kg, 4 h, individual animals, 1 mg/kg): 8.59 ng/mL and 6.36 ng/mL | Concentration (hGLP-1R mouse plasma, PO 1 mg/kg, 8 h, individual animals, 1 mg/kg): 4.90 ng/mL and 6.23 ng/mL and 3.07 ng/mL | Tlast (hGLP-1R mouse plasma, PO 1 mg/kg, individual mice): 8.00 h | AUC0-inf [3]: 0.366 µg·h/mL and 0.326 µg·h/mL | AUC0-last [3]: 0.352 µg·h/mL and 0.32 µg·h/mL | AUCExtra [3]: 1.78% and 3.97% and 1.84% | AUMCExtra [3]: 11.9% and 22.6% and 12.9% | Cmax [3]: 0.256 µg/mL and 0.265 µg/mL | MRT0-inf [3]: 1.81 h and 1.42 h | MRT0-last [3]: 1.46 h and 1.26 h | T1/2 [3]: 1.62* h and 1.36* h | AUCExtra [4]: 2.53% | AUMCExtra [4]: 15.8% | Tlast [4]: 8.00 h | Concentration (hGLP-1R mouse plasma, PO 3 mg/kg, 0.25 h, individual animals, 3 mg/kg): 823 ng/mL and 1030 ng/mL and 2870 ng/mL | Concentration (hGLP-1R mouse plasma, PO 3 mg/kg, 0.5 h, individual animals, 3 mg/kg): 982 ng/mL and 937 ng/mL and 3450 ng/mL | Concentration (hGLP-1R mouse plasma, PO 3 mg/kg, 1 h, individual animals, 3 mg/kg): 592 ng/mL and 387 ng/mL and 1990 ng/mL | Concentration (hGLP-1R mouse plasma, PO 3 mg/kg, 2 h, individual animals, 3 mg/kg): 157 ng/mL and 100 ng/mL and 655 ng/mL | Concentration (hGLP-1R mouse plasma, PO 3 mg/kg, 4 h, individual animals, 3 mg/kg): 48.1 ng/mL and 35.1 ng/mL and 170 ng/mL | Tlast (hGLP-1R mouse plasma, PO 3 mg/kg, individual mice): 8.00 h | AUC0-inf [5]: 1.923 µg·h/mL and 1.229 µg·h/mL and 4.707 µg·h/mL | AUC0-last [5]: 1.497 µg·h/mL and 1.154 µg·h/mL and 4.673 µg·h/mL | AUCExtra [5]: 22.2% and 6.12% and 0.710% | AUMCExtra [5]: 63.8% and 30.6% and 4.74% | Cmax [5]: 0.982 µg/mL and 1.03 µg/mL and 3.45 µg/mL | MRT0-inf [5]: 4.39 h and 2.08 h and 1.46 h | MRT0-last [5]: 1.54 h | T1/2 [5]: 3.21* h and 1.68* h and 1.19 h | Tmax [5]: 0.250 h | AUCExtra [6]: 9.68% | AUMCExtra [6]: 33.0% | Tlast [6]: 8.00 h | AUC(0-t) (male, C57BL/6J hGLP-1R, mouse, plasma, po, 0.3 mg/kg, hGLP-1R mice, total, PO 0.3 mg/kg, read-out: AUClast Mean): 0.107 µg·h/mL | Cmax (male, C57BL/6J hGLP-1R, mouse, plasma, po, 0.3 mg/kg, hGLP-1R mice, total, PO 0.3 mg/kg, read-out: Cmax Mean): 0.0827 µg/mL | half-life (male, C57BL/6J hGLP-1R, mouse, plasma, po, 0.3 mg/kg, hGLP-1R mice, total, PO 0.3 mg/kg, read-out: T1/2 (converted)): 1.4 h | Tmax (male, C57BL/6J hGLP-1R, mouse, plasma, po, 0.3 mg/kg, hGLP-1R mice, total, PO 0.3 mg/kg, read-out: Tmax Median): 0.5 h | concentration at 120 min (male, C57BL/6J hGLP-1R, mouse, plasma, po, 0.3 mg/kg, hGLP-1R mouse plasma collected at 120 min (IPGTT cohort), PO 0.3 mg/kg, read-out: Mean Concentration): 0.0188 µg/mL | concentration at 0.25 h (male, C57BL/6J hGLP-1R, mouse, plasma, po, 0.3 mg/kg, hGLP-1R mouse plasma, PO 0.3 mg/kg, 0.25 h, read-out: Mean Concentration): 0.0783 µg/mL | concentration at 0.5 h (male, C57BL/6J hGLP-1R, mouse, plasma, po, 0.3 mg/kg, hGLP-1R mouse plasma, PO 0.3 mg/kg, 0.5 h, individual animals, read-out: Concentration): 0.0634 µg/mL
